Data taken from patent US8785614B2, “Aberrantly methylated genes in pancreatic cancer” (The Johns Hopkins University, priority 2003, dated 2014).

Test system: MiaPaCa2 pancreatic cancer cell line
Assay: Oligonucleotide microarray gene expression after TSA (1 μM, 24 h) vs mock
Assay type: cell-based, human
Method: Mock-treated cells were cultured with the equivalent volume of PBS alone.
Total RNA was isolated from cultured cells using TRIZOL reagent (invitrogen, Carlsbad, Calif.) and purified using RNeasy Mini Kit (Qiagen, Valencia, Calif.). First- and second-stranded cDNA was synthesized from 10 μg of total RNA using 17-dT) primer (Genset Corp., La Jolla, Calif.) and Superscript Choice system (Invitrogen). Labeled cRNA was synthesized from the purified cDNA by in vitro transcription reaction using the BioArray High Yield RNA Transcript Labeling Kit (Enzo Diagnostics, Inc., Farmingdale, N.Y.) at 37° C. for 6 h. The cRNA was fragmented at 94° C. for 35 min. in a fragmentation buffer [40 mM Tris-acetate @ pH 8.1, 100 mM potassium acestate, and 30 mM magnesium acetate]. The fragmented cRNA was then hybridized to the Human Genome U133A chips (Affymetrix, Santa Clara, Calif.) with 18462 unique gene/EST transcripts at 45° C. for 16 h. The washing and staining procedure was performed in the Affymetrix Fluidics Station according to the manufacturer's instructions. The probes were then scanned using a laser scanner, and signal intensity for each transcript (background-subtracted and adjusted for noise) was calculated using Microarray Suite Software 5.0 (Affymetrix).
Fold change analysis of signal intensities obtained from oligonucleotide microarrays between the two treatment groups was performed using Data Mining software (Afrymetrix).

CC(/C=C/C(=O)NO)=C\[C@@H](C)C(=O)c1ccc(N(C)C)cc1 [TSA, trichostatin A]
Fold-change after TSA treatment (ADM, MiaPaCa2): 5.02 fold
Fold-change after TSA treatment (ANGPT1, MiaPaCa2): 1.75 fold
Fold-change after TSA treatment (AREG, MiaPaCa2): 3.97 fold
Fold-change after TSA treatment (ATF3, MiaPaCa2): 2.14 fold
Fold-change after TSA treatment (BIK, MiaPaCa2): 10.05 fold
Fold-change after TSA treatment (CACNA1G, MiaPaCa2): 4.61 fold
Fold-change after TSA treatment (CAPN5, MiaPaCa2): 5.18 fold
Fold-change after TSA treatment (CDH8, MiaPaCa2): −1.29 fold
Fold-change after TSA treatment (CDKN1C, MiaPaCa2): 13.22 fold
Fold-change after TSA treatment (CGR11, MiaPaCa2): 3.22 fold
Fold-change after TSA treatment (CHES1, MiaPaCa2): −1.03 fold
Fold-change after TSA treatment (CHFR, MiaPaCa2): 1.27 fold
Fold-change after TSA treatment (CLDN15, MiaPaCa2): 1.13 fold
Fold-change after TSA treatment (EDR1, MiaPaCa2): 5.91 fold
Fold-change after TSA treatment (EGR4, MiaPaCa2): 8.67 fold
Fold-change after TSA treatment (EREG, MiaPaCa2): 1.7 fold
Fold-change after TSA treatment (GADD45B, MiaPaCa2): 5.06 fold
Fold-change after TSA treatment (GAGE1, MiaPaCa2): 0.53 fold
Fold-change after TSA treatment (GAGE2, MiaPaCa2): 1.31 fold
Fold-change after TSA treatment (GAGE3, MiaPaCa2): −2.68 fold
Fold-change after TSA treatment (GAGE4, MiaPaCa2): 1.32 fold
Fold-change after TSA treatment (GAGE6, MiaPaCa2): −2.17 fold
Fold-change after TSA treatment (GAGE7B, MiaPaCa2): −1.76 fold
Fold-change after TSA treatment (H1 historic family, member 2 (BC002649), MiaPaCa2): 4.16 fold
Fold-change after TSA treatment (HEP27, MiaPaCa2): 26.21 fold
Fold-change after TSA treatment (HMOX1, MiaPaCa2): 5.25 fold
Fold-change after TSA treatment (HPSE, MiaPaCa2): 14.09 fold
Fold-change after TSA treatment (ID2, MiaPaCa2): 2.27 fold
Fold-change after TSA treatment (ING1, MiaPaCa2): 13.25 fold
Fold-change after TSA treatment (KLK12, MiaPaCa2): 2.91 fold
Fold-change after TSA treatment (MAGE1, MiaPaCa2): 5.17 fold
Fold-change after TSA treatment (MBD1, MiaPaCa2): 1.28 fold
Fold-change after TSA treatment (MMP1, MiaPaCa2): 1.01 fold
transcripts with marked induction (MiaPaCa2): 207 transcripts
transcripts with marked induction, share of transcripts analyzed (MiaPaCa2): 1.1%
Fold-change after TSA treatment (NGFR, MiaPaCa2): 13.46 fold
Fold-change after TSA treatment (NOTCH3, MiaPaCa2): −1.04 fold
Fold-change after TSA treatment (P-glycoprotein (mdr1), MiaPaCa2): 2.74 fold
Fold-change after TSA treatment (STC1, MiaPaCa2): 2.73 fold
Fold-change after TSA treatment (UCPH, MiaPaCa2): 6.39 fold
Fold-change after TSA treatment (ULBP2, MiaPaCa2): 4.09 fold
Fold-change after TSA treatment (WNT4, MiaPaCa2): 3.36 fold
Fold-change after TSA treatment (candidate tumor suppressor gene 21 protein (AF040708), MiaPaCa2): 1.15 fold
Fold-change after TSA treatment (connective tissue growth factor (M92934), MiaPaCa2): 4.28 fold
Fold-change after TSA treatment (hemoglobin, alpha 1 (HBAI), MiaPaCa2): 77.77 fold
Fold-change after TSA treatment (interleukin 8, MiaPaCa2): 1.36 fold
Fold-change after TSA treatment (period homolog 1 (PERI), MiaPaCa2): 1.28 fold
Fold-change after TSA treatment (prostate differentiation factor (AF003934), MiaPaCa2): 16.4 fold
Fold-change after TSA treatment (protease inhibitor 12 (neuroserpin) (SERPINU), MiaPaCa2): 44.44 fold
Fold-change after TSA treatment (synovial sarcoma, X breakpoint 1 (BC001003), MiaPaCa2): 1.5 fold
Fold-change after TSA treatment (tissue factor pathway inhibitor-2 (L27624), MiaPaCa2): −0.68 fold
